Data set [1] concerns serotonin (5-HTlλ) receptors. In words: [3H]-8-OH-DPAT binding. To be noted: 20 μM; data not shown. As for the experimental part:
(§1) Additional binding studies were performed as described elsewhere: [^3 ]-prazosin binding for α1 adrenergic receptors (Medina et al., 1984), [^3 H]-dihidroalprenolol binding for β adrenergic receptors (Medina et al. 1984), [^3 H]-quinuclinidyl benzylate binding for muscarinic cholinergic receptors (Jerusalinksy et al., 1983), [^3 H]-muscimol binding for GABAλ receptors (Medina et al., 1983) and [^3 H]-8-Hydroxydipropylaminotetralin ([^3 H]--OH--DPAT) binding for serotonin (5-HTlλ) receptors (Nenonene et al., 1984).

The test system of data set [2] is muscarinic cholinergic receptors. It counts as binding. To be noted: 20 μM; data not shown.
The target in data set [3] is T1, central benzodiazepine receptor type I (Rattus norvegicus, UniProt P18508+P62813).
T1 construct: washed crude synaptosomal membranes from rat cerebral cortex; from tissue; host or cells: Wistar rat cerebral cortex, striatum, cerebellum (crude synaptosomal membranes)
In words: [3H]-zolpidem binding to rat synaptosomal membranes. To be noted: read-out: Ki, [3H]-ZOLP binding. Further details: species or system rat (Wistar). As for the experimental part:
(§2) Adult male Wistar rats weighing 250 g were used for biochemical experiments. Adult male Swiss male weighing 25-30 g were used for pharmacological assays except for inhibitory avoidance and tail flick tests were done in rats. Animals were housed in a controlled environment, with free access to food and water and maintained on a 12 h/12 h day/night cycle.
(§3) Displacement curves were performed using [^3 ]-FNZ or [^3 H]-zolpidem ([^3 H]-ZOLP) as radioligands in washed crude synaptosomal membranes from rat cerebral cortex, cerebellum, hippocampus, striatum or spinal cord. Membrane preparations were carried out according to Medina et al. (1990). Briefly, brains were rapidly dissected out on ice and the different structures were homogenized in 10 volumes of 0.32 M sucrose and centrifuged at 900×g for 10 min. The resulting supernatant was centrifuged at 100,000×g for 30 min and the pellet washed twice in 25 mM Tris HCl buffer pH 7.4 at 100,000×g for 30 min, and stored at -20° C. until used.
For [^3 H]-ZOLP (50.8 Ci/mmol, NEN) binding assays we used the technique of Arbilla et al. (1986), slightly modified as follows: displacement curves were done with 1 nM of the radioligand and 10 μM zolpidem to determine the nonspecific binding (<15%). The incubation of the samples (0.4 mg protein in 1 ml of 50 mM Tris HCl buffer, pH 7.4, 120 mM NaCl, 5 mM KCl) was carried out at 4' C. during 30 min. […]

Data set [4] has as its target central benzodiazepine receptor. In words: [3H]-FNZ binding to crude synaptosomal membranes from rat CNS regions. Further details: species or system rat (Wistar). Conditions: read-out: Ki, [3H]-FNZ binding. As for the experimental part: as §2, §3
For [^3 H]-FNZ (84 Ci/mmol, NEN) displacement curves, different concentrations of DNF (0.3 nM to 1 μM) were added to 0.3 mg membrane protein suspended in 1 ml of 25 mM Tris HCl buffer in presence of 0.6 nM of the radioligand. Protein determination was carried out by using the method of Lowry et al. (1951). Nonspecific binding (<5%) was determined in parallel incubations with 10 μM FNZ (Hoffmann-La Roche). The incubation was carried out at 4° C. for 2 h. The assays were determined by filtration under vacuum through Whatman GF/A glass fiber filters, and two washes with 3 ml each of incubation medium. Filters were dried and counted after the addition of 5 ml 2,5-diphenyl-oxazole (PPO)-xylene as scintillation fluid.

The subject of the next data set is α1 adrenergic receptors. In words: [3H]-prazosin binding. Conditions: 20 μM; data not shown. Here is the method:
as §1

In data set [5] the target is central benzodiazepine receptor (Rattus norvegicus, UniProt P18508+P62813). In words: Autoradiographic [3H]-FNZ displacement on rat brain sections. The format is binding, rat (Wistar). More on the design: Wistar rats were decapitated and brains rapidly removed; from tissue; host or cells: Wistar rat brain sagittal sections. Here is the method:
Wistar rats were decapitated and brains rapidly removed. Sagittal sections (15 μm in thickness) were prepared at -20° C. using a microtome-cryostat. The tissue slices were kept frozen at -70° C. until used. For DNF displacement curves to [^3 H]--FNZ binding (0.65 nM), tissue sections were incubated for 60 min at 4° C. in 25 mM Tris HCl buffer, pH 7.4, in presence of different concentrations of DNF (1-600 nM). For non-specific binding we used 10 μM FNZ. The incubation was terminated by rinsing the sections for two min in cold buffer. Sections were briefly dipped in cold distilled water and dried rapidly under a stream of cold air (Niddam et al., 1987).
Autoradiograms were generated by apposing the slide-mounted tissue section to tritium-sensitive film (Hyperfilm Amersham) in a light-proof X-ray cassette at 4° C. for two weeks.
The optical densities from different brain regions were converted first to radioactive units and then to fmol/mm^2 using the [^3 H] standards on the film with the aid of a computerized image densitometric analysis system (MCID 4.02). The values were normalized and the Ki values were determined using a computerized program (Graph-Pad Prism) Bernabeu et al., 1995; Cammarota et al., 1995).

A further data set has as its system mice. In words: Horizontal wire test in mice. It counts as in vivo, male Swiss mice. Here is the method:
as §2
This test was carried out as previously described (Viola et al., 1994; Wolfman et al., 1994; Viola et al., 1995). The test took place after two trials, performed at 5 min intervals. A myorelaxant drug will impair mice to grasp the wire (Bonetti et al., 1982). The effect of DNF )1 mg/kg) on DZ-induced myorelaxation was also determined.

Molecules are shown by their SMILES. “Also recorded” adds a separate entry of the source. Read-outs that look alike come from different tables or passages of the source.

T1 sequence (P62813 28-455): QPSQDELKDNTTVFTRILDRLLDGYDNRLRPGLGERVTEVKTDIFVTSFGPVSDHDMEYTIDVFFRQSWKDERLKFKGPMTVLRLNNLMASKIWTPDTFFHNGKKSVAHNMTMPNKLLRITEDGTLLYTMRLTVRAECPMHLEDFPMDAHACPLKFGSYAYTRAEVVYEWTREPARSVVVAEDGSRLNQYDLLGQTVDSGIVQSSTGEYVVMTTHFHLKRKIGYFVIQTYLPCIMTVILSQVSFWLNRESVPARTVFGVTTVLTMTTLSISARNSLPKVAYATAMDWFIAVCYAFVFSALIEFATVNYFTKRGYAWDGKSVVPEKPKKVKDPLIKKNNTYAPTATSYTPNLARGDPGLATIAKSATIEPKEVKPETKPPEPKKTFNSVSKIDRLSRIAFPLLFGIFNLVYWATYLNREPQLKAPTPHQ
T1 sequence (P18508 39-466): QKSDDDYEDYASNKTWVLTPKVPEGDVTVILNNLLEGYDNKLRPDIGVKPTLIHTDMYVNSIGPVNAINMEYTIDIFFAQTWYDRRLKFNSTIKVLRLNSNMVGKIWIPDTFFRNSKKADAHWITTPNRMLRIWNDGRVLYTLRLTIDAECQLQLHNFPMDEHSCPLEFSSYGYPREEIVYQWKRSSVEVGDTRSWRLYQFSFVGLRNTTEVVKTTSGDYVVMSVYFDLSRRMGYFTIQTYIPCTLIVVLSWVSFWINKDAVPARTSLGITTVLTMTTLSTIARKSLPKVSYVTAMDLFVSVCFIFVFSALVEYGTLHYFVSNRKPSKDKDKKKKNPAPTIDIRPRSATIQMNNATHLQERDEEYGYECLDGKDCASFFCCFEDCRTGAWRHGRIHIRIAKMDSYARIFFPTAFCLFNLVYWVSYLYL
T1 sequence (P63138 25-474 partner limits assumed): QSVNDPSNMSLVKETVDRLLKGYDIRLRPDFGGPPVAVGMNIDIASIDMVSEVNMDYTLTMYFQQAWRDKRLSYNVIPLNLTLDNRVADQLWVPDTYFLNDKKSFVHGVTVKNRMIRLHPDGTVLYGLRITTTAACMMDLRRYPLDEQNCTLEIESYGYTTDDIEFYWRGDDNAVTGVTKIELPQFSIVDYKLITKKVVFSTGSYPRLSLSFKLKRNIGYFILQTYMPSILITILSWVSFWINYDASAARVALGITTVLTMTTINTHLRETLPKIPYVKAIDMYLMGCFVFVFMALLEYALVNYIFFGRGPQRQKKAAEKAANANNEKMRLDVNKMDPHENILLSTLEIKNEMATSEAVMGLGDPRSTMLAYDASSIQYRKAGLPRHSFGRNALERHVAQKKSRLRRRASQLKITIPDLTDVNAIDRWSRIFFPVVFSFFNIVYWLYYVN
central benzodiazepine receptor (Rattus norvegicus, UniProt P18508+P62813), sequence (P62813 28-455): as the sequence (P62813 28-455) above
central benzodiazepine receptor (Rattus norvegicus, UniProt P18508+P62813), sequence (P18508 39-466): as the sequence (P18508 39-466) above
central benzodiazepine receptor (Rattus norvegicus, UniProt P18508+P62813), sequence (P63138 26-474 partner): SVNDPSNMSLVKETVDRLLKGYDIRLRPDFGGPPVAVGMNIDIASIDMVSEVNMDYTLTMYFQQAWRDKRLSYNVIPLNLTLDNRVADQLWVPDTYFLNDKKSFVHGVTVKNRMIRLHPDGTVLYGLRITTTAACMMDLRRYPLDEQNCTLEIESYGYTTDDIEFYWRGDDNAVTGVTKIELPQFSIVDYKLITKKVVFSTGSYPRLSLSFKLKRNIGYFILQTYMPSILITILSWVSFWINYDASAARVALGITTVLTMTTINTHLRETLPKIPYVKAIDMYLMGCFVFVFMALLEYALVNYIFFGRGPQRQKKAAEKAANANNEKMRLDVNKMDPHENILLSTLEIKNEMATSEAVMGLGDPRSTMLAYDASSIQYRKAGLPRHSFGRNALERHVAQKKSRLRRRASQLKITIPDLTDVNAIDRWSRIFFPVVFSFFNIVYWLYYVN

As for `O=c1cc(-c2cccc([N+](=O)[O-])c2)oc2ccc([N+](=O)[O-])cc12` [Compound (II), 6,3'-dinitroflavone], the “displacement of [3H]-8-HO-DPAT binding” value in data set [1] is listed as “did not displace”. The “displacement of [3H]-quinuclidinyl benzilate binding” value in data set [2] was “did not displace”. Also, the inhibitory constant (Ki) in data set [3] (rat cerebellum, n=3) is 17 ± 1.5 nM; in data set [3] (rat cerebral cortex, n=5), 17.2 ± 3.7 nM; in data set [4] (rat cerebral cortex), 25.9 ± 3.1 nM; in data set [4] (rat hippocampus), 36.1 ± 5 nM; in data set [4] (rat spinal cord), 48.1 ± 5.5 nM; in data set [4] (rat striatum and spinal cord (range over both)), 44 to 48 nM. Further, the Ki in data set [4] (rat striatum) turned out to be 44.1 ± 4.9 nM; in data set [5] it was 17.2 ± 2.3 nM. The “displacement of [3H]-prazosin binding” value with α1 adrenergic receptors is reported as “did not displace”. Further, in the data set on mice (mice, DNF plus DZ (1 mg/kg), listed as DNF), the “effect on DZ-induced myorelaxation” value is listed as “counteracted; also recorded: able to reverse the myorelaxant effect of the full agonist DZ; also recorded: prevents the muscle relaxation effect of a full benzodiazepine receptor agonist”. In addition, the “animals showing myorelaxant effect, DNF plus DZ” value in the data set on mice (mice, i.p., DNF plus DZ (1 mg/kg), p<0.001) is 2 animals out of 15. Further, the “percentage of mice grasping the wire” value in the data set with mice (mice, i.p., up to 10 mg/kg) is “did not affect the percentage of mice grasping”. In addition, the myorelaxant effects entry in the data set on mice (up to 10 mg/kg) was “did not evidence anticonvulsant, myorelaxant”.

Usually Ki stands for the dissociation constant of the complex between target and ligand, obtained from inhibition or displacement.

Source of the values: US6080780A, “Use of nitroflavonoids for the treatment of anxiety” (University of Strathclyde, priority 1995, dated 2000).
